Source: patent publication US20230277669A1, “USES OF UROLITHINS” (Amazentis SA, priority 2022, published 2023)

Assays:
CD8+ T cells = assay: In vitro stimulation of CD3+ T cells with aCD3/aCD28 beads in presence of UA; type: cell-based, FVB mice
Method: (FIG. 2A) Scheme of CD3+ T-cell activation and analysis for various timepoints. (FIG. 2B) Reduced effector molecule expression on in vitro treated cells (n=3 pooled from three independent experiments). Isolated T-cells were stimulated for 48 h at the presence of UA or DMSO in the indicated doses. Data are mean ± SD, *p < 0.05 by two-sided t-test. (FIG. 2C) Reduced effector molecule expression on in vitro treated cells (n=3 pooled from three independent experiments). Isolated T-cells were stimulated for 48 h at the presence of UA or DMSO in the indicated doses. Data are mean ± SD, *p < 0.05 by two-sided t-test. (FIG. 2D) Quantification of T memory stem cells (TSCM: CD44^-CD62L^+Sca1^hi) after 24 h, 48 h and 96 h post stimulation with aCD3/aCD28 stimulation beads as indicated in (A) (n=4 pooled from four independent experiments). Data are mean ± SD, statistical analysis was performed via two-sided t-test (*p < 0.05; **p < 0.01; n.s. not significant). (FIG. 2E) Mitochondrial membrane potential within naïve CD62L^+CD44^-CD8^+ T cells, with TMRM^lo representing cells with low mitochondrial membrane potential. Cells were stimulated for 48 h as depicted in (A). Data are mean ± SD, n=4; ***p <0.001 by two-sided t-test. Experiment was repeated twice in independent experiments. (FIG. 2F) Representative histogram and quantification of memory marker CD95 expression in CD62L^+CD44^-CD8^+ cells, 48 hours after in vitro stimulation. Data are mean ± SD; n=5; ****p < 0.0001 by two-sided t-test. Data depicts one of two independent experiments. (FIG. 2G) Analysis of TIL of UA-fed mice, treated as depicted in FIG. 1J. Percentage of TSCM within CD8+ (G; n=7), as well as TCF1 (H; n=7) PD1^hi,Tim3^hi and CTLA4hi (I-K, all n=6) in the TIL CD8+ population are shown. Data are mean ± SD, statistical analysis was performed via two-sided t-test (*p < 0.05; **p < 0.01;, ***p <0.001.). Data depicts one of two independent experiments. (FIG. 2H) The same experiment as FIG. 2G with TCF1 (n=7) in the TIL CD8+ population. (FIG. 2I) The same experiment as FIG. 2G with PD1^hi (n=6) in the TIL CD8+ population. (FIG. 2J) The same experiment as FIG. 2G with Tim3^hi (n=6) in the TIL CD8+ population. (FIG. 2K) The same experiment as FIG. 2G with CTLA4hi (n=6) in the TIL CD8+ population. (FIG. 2L) Flow cytometry readout of ex vivo cytokine release of previously isolated TIL upon re-stimulation with PMA/ionomycin. Data are mean ± SD with n=7 per group. Statistical analysis was performed by two-sided t-test (**p < 0.01). One out of two independent experiments are shown. (FIG. 2M) Flow cytometry readout of ex vivo cytokine release of previously isolated TIL upon re-stimulation with PMA/ionomycin. Data are mean ± SD with n=7 per group. Statistical analysis was performed by two-sided t-test (**p < 0.01). One out of two independent experiments are shown.
(FIG. 4A) Scheme of CD3+ T-cell activation and analysis for various timepoints in order to investigate mitophagy induction in vitro. (FIG. 4B) Analysis of mitochondrial membrane potential within CD8+ T cells, with TMRM^lo representing cells with low mitochondrial membrane potential. Analysis was performed six hours after stimulation with aCD/aCD28 stimulation beads at the presence of the indicated treatments. N=4 per group, *p < 0.05 by Mann Whitney U test. One of two independent experiments are shown. (FIG. 4C) Representative flow histogram and quantification of lysosome formation in CD8+ cells six hours after in vitro stimulation. MFI shown relative to DMSO controls, n=4. Data are normalised mean ± SD, statistical analysis by two-sided t-test. One out of two independent experiments are shown. (FIG. 4D) Mitotracker Red staining of in vitro stimulated CD8+ cells after 24 hours of Urolithin A (UA25 n=6; UA50 n=6) or vehicle control treatment (DMSO: n=4). A representative flow histogram depicting identification of Mitotracker^hi cells is shown. […]

muscle function = conditions: urolithin A-high diet, cited from earlier work

SMILES: O=c1oc2cc(O)ccc2c2ccc(O)cc12 [Urolithin A]
- number of CD44-CD62L+Sca1hi TSCM (CD8+ T cells; 24 h, 48 h and 96 h post stimulation): in a dose dependent manner to a significantly increased number
- loss of mitochondrial content per T cell subset (TSCM, TCM, TEFF) (CD8+ T cells; 24 hours, 50 µM Urolithin A): deteted in all T cell subsets analyzed
- mitochondrial content (Mitotracker Red) in CD8+ cells (CD8+ T cells; 24 hours, UA25, UA50): loss of mitochondrial content in a dose-dependent manner
- TSCM formation, stimulated vs unstimulated CD8+ cells (CD8+ T cells; 48 h, aCD3/CD28 beads +-UA or unstimulated): only formed in activated T cells
- PGC-1 expression in CD8+ cells (CD8+ T cells; 48 h, prolonged UA administration in vitro): marked upregulation of PGC-1
- CD95 expression in CD62L+CD44-CD8+ cells (CD8+ T cells; 48 hours after stimulation): increased CD95 expression
- TCF1 expression (CD8+ T cells; 48 h stimulation): high expression of TCF1
- cyclin D1 expression (CD8+ T cells; 48 h stimulation): reduced cyclin D1 expression
- differentiation into effector T cells (effector molecule expression) (CD8+ T cells; 48 h stimulation): blocked differentiation into effector T cells
- mitochondrial membrane potential (TMRM) in naive CD62L+CD44-CD8+ T cells (CD8+ T cells; 48 h stimulation): reduced mitochondrial membrane potential
- naive CD44loCD62Lhi T cells (CD8+ T cells; 48 h stimulation, different doses of UA): significant increase
- CD8+ T cell division (CTV staining) (CD8+ T cells; 72 h stimulation): restricted CD8+T cell division in a dose-dependent manner
- mitochondrial membrane potential in CD8+ T cells (CD8+ T cells; six hours after UA administration): reduction of mitochondrial membrane potential
- lysosome formation in CD8+ cells (CD8+ T cells; six hours after stimulation): enhanced lysosome formation
- recovery of muscle function (muscle function; mice with Duchenne muscular dystrophy): recovery of muscle function
- muscle function (muscle function): superior muscle function
